Results from US6939563B2, “Non-fermented osmotic laxative and method for treating and preventing colorectal cancers” (Inra-Institut National de la Recherche Agronomique, priority 1998, dated 2005).
Where two headings read alike, the source gives them in different places.

How the values were obtained:
[1] = test system: colon carcinogenesis in rats; assay: Wargovich et al. Int. J. Cancer 1995 (Ref 12): AOM, then 4 wks, then agent 4 wks; format: in vivo, rat; details: Ref 12 (Piroxicam line prints Ref 8); from published data
From the text: (§1) Each value is the ratio between the value in the controls given a carcinogenic substance and the value found in animals treated with a preventive agent before or after the carcinogenic substance. The higher the value the greater the effectiveness of the agent.
(§2) The results given in Table 4 were established on the basis of published data indicated in references 2 to 12 in Table 5 below.

[2] = test system: colon carcinogenesis in rats; details: AOM, then 4 wks, then agent 4 wks, cited from earlier work; for ACF/rat: Aspirin 0.2 g/kg (control 175), Piroxicam 0.2 (control 125), 13 cis Retinoic (control 140); for Large ACF: controls 55 (aspirin), 40 (piroxicam), 57 (retinoic)
[3] = test system: colon carcinogenesis in rats; assay: Tanaka et al. Carcinogenesis 1997 (Ref 11): ACF induced by 3 x AOM 15 mg/kg; format: in vivo, rat; details: from published data; for n° ACF/rat, ratio controls/treated: Hesperidin 1000 ppp, Auraptene 500 ppm
From the text: as §1, §2

[4] = test system: colon carcinogenesis in rats; details: 3 x AOM 15 mg/kg, cited from earlier work; for ACF/rat: Hesperidin 1000 ppm (control 89 ± 17), Acetoxychavicol acet 100 ppm (control 118 ± 28), Auraptene (control 157 ± 21); for Crypt/ACF: controls 2.77 (Hesperidin), 2.54 (Acetoxychavicol acet), 2.91 (Auraptene)
[5] = test system: colon carcinogenesis in rats; assay: Takahashi et al. Carcinogenesis 1997 (Ref 9): ACF induced by 10x PhIP, DHA before each dose; format: in vivo, rat; details: from published data
From the text: as §1, §2

[6] = test system: colon carcinogenesis in rats; assay: Takahashi et al. Carcinogenesis 1997 (Ref 10): ACF induced by 20x AOM, DHA with each dose; format: in vivo, rat; details: from published data
From the text: as §1, §2

[7] = test system: colon carcinogenesis in rats; details: ACF induced by 10x PhIP, DHA 4 h before each dose, cited from earlier work
[8] = test system: colon carcinogenesis in rats; details: 20x AOM, 1 ml DHA with each dose, 12w, cited from earlier work
[9] = test system: colon carcinogenesis in rats; assay: Pereira-Khoury Cancer Lett. 1991 (Ref 4): agent wk-1 to +4, 2x15 mg AOM; format: in vivo, rat; details: from published data
From the text: as §1, §2

[10] = test system: colon carcinogenesis in rats; details: agent wk-1 to +4, 2x15 mg AOM at wk 0, cited from earlier work; for Crypt/ACF: control 2.59 ± 0.14; for ACF/rat: control 228 ± 32
[11] = test system: colon carcinogenesis in rats; assay: Pereira et al. Carcinogenesis 1994 (Ref 5): agent day 1-35, AOM d. 7 & 14; format: in vivo, rat; details: from published data
From the text: as §1, §2

[12] = test system: colon carcinogenesis in rats; details: agent day 1-35, AOM on d. 7 & 14, cited from earlier work; for Crypt/ACF: control 2.04 ± 0.04; for ACF/rat: control 26 ± 2.2
[13] = test system: colon carcinogenesis in rats; assay: Salim et al. Jpn J Cancer Res 88 (Ref 8): Vit. D3 post DMH 16 wks; format: in vivo, rat; details: from published data
From the text: as §1, §2

[14] = test system: colon carcinogenesis in rats; details: Vit. D3 10 ppm post DMH for 16 wks, cited from earlier work
[15] = test system: colon carcinogenesis in rats; assay: Reddy et al. Carcinogenesis 1997 (Ref 6): inulin 10 wks, AOM wk 3 & 4; format: in vivo, rat; details: from published data
From the text: as §1, §2

[16] = test system: colon carcinogenesis in rats; details: Inulin 10% for 10 wks, AOM at wk 3 & 4, cited from earlier work

**Q.** What does the source list for CC1=C(/C=C/C(C)=C/C=C/C(C)=C\C(=O)O)C(C)(C)CCC1 [13 cis retinoic]?
**A.** Large ACF, ratio controls/treated [1]: 1.9; n° ACF/rat, ratio controls/treated [1]: 2.0; ACF/rat [2]: 70; Large ACF [2]: 30

**Q.** For C=C[C@H](OC(C)=O)c1ccc(OC(C)=O)cc1 [Acetoxychavicol acet.], which “n° ACF/rat, ratio controls/treated” value [3] is on record?
**A.** The value was 1.7.

**Q.** And the “Crypts/ACF, ratio controls/treated” value [3]?
**A.** Its value is 1.13.

**Q.** What about the “Large ACF, ratio controls/treated” value [3] of the same compound?
**A.** The value was 2.1.

**Q.** What about the “Large ACF” value ([4]; Acetoxychavicol acet 100 ppm, control 60) of the same compound?
**A.** The value was 28.

**Q.** And the ACF/rat [4]?
**A.** The ACF/rat was 70 ± 10.

**Q.** What about the Crypt/ACF [4] of the same compound?
**A.** The Crypt/ACF was 2.24.

**Q.** Which results are given for CC(=O)Oc1ccccc1C(=O)O [Aspirin]?
**A.** Large ACF, ratio controls/treated [1]: 2.7; n° ACF/rat, ratio controls/treated [1]: 1.7; ACF/rat [2]: 100; Large ACF [2]: 20

**Q.** What does the source list for CC(C)=CCC/C(C)=C/COc1ccc2ccc(=O)oc2c1 [Auraptene]?
**A.** n° ACF/rat, ratio controls/treated [3]: 2.3; Crypts/ACF, ratio controls/treated [3]: 1.33

**Q.** For CC/C=C\C/C=C\C/C=C\C/C=C\C/C=C\C/C=C\CCC(=O)O [DHA], which “Crypts/ACF, ratio controls/treated” value [5] is on record?
**A.** The value was 1.13.

**Q.** What about the “n° ACF/rat, ratio controls/treated” value [5] of the same compound?
**A.** Its value is 2.8.

**Q.** And the “Crypts/ACF, ratio controls/treated” value [6]?
**A.** Its value is 1.08.

**Q.** And the “Large ACF, ratio controls/treated” value [6]?
**A.** The value was 2.0.

**Q.** What about the “n° ACF/rat, ratio controls/treated” value [6] of the same compound?
**A.** The value was 1.6.

**Q.** What about the Crypts/ACF ([7]; control 2.69) of the same compound?
**A.** Its Crypts/ACF is 2.39.

**Q.** And the ACF/rat ([7]; control 22)?
**A.** The ACF/rat was 8.

**Q.** And the Crypt/ACF ([8]; control 3.2)?
**A.** Its Crypt/ACF is 2.95.

**Q.** What about the “Large ACF” value ([8]; control 114) of the same compound?
**A.** Its value is 56.

**Q.** And the ACF/rat ([8]; control 308 ± 64)?
**A.** The ACF/rat was 191 ± 40.

**Q.** With C[C@]12CC[C@H](O)CC1=CC[C@@H]1[C@@H]2CC[C@]2(C)C(=O)CC[C@@H]12 [Dehydroepiandrosterone] as the compound, how does the “Crypts/ACF, ratio controls/treated” value [9] read?
**A.** The value was 1.06.

**Q.** What about the “n° ACF/rat, ratio controls/treated” value [9] of the same compound?
**A.** The value was 1.9.

**Q.** And the Crypt/ACF [10]?
**A.** Its Crypt/ACF is 2.44 ± 0.07.

**Q.** What about the ACF/rat [10] of the same compound?
**A.** The ACF/rat was 121 ± 19.

**Q.** For COc1ccc([C@@H]2CC(=O)c3c(O)cc(O[C@@H]4O[C@H](CO[C@@H]5O[C@@H](C)[C@H](O)[C@@H](O)[C@H]5O)[C@@H](O)[C@H](O)[C@H]4O)cc3O2)cc1O [Hesperidin], which “n° ACF/rat, ratio controls/treated” value [3] is on record?
**A.** Its value is 2.6.

**Q.** And the “Crypts/ACF, ratio controls/treated” value [3]?
**A.** The value was 1.25.

**Q.** What about the ACF/rat [4] of the same compound?
**A.** The ACF/rat was 34 ± 5.

**Q.** What about the Crypt/ACF [4] of the same compound?
**A.** Its Crypt/ACF is 2.22.

**Q.** Which “Crypts/ACF, ratio controls/treated” value [9] does the source give for CC(=O)N[C@@H](CS)C(=O)O [N-acetylcysteine] here?
**A.** Its value is 1.10.

**Q.** What about the “n° ACF/rat, ratio controls/treated” value [9] of the same compound?
**A.** Its value is 1.5.

**Q.** And the Crypt/ACF [10]?
**A.** The Crypt/ACF was 2.35 ± 0.07.

**Q.** And the ACF/rat [10]?
**A.** The ACF/rat was 151 ± 21.

**Q.** For CN1C(C(=O)Nc2ccccn2)=C(O)c2ccccc2S1(=O)=O [Piroxicam], which “Crypts/ACF, ratio controls/treated” value [11] is on record?
**A.** The value was 1.10.

**Q.** What about the “n° ACF/rat, ratio controls/treated” value [11] of the same compound?
**A.** The value was 1.6.

**Q.** What about the “Large ACF, ratio controls/treated” value [1] of the same compound?
**A.** The value was 8.

**Q.** And the “n° ACF/rat, ratio controls/treated” value [1]?
**A.** The value was 2.8.

**Q.** What about the Crypt/ACF [12] of the same compound?
**A.** Its Crypt/ACF is 1.84 ± 0.1.

**Q.** What about the ACF/rat [12] of the same compound?
**A.** The ACF/rat was 16 ± 2.8.

**Q.** What about the ACF/rat [2] of the same compound?
**A.** The ACF/rat was 45.

**Q.** What about the “Large ACF” value [2] of the same compound?
**A.** Its value is 5.

**Q.** Which “Crypts/ACF, ratio controls/treated” value [11] does the source give for CC1=C(CC(=O)O)c2cc(F)ccc2/C1=C\c1ccc([S+](C)[O-])cc1 (centres unmarked) [Sulindac] here?
**A.** The value was 1.10.

**Q.** What about the “n° ACF/rat, ratio controls/treated” value [11] of the same compound?
**A.** The value was 1.7.

**Q.** What about the Crypt/ACF [12] of the same compound?
**A.** Its Crypt/ACF is 1.82 ± 0.14.

**Q.** What about the ACF/rat [12] of the same compound?
**A.** The ACF/rat was 15 ± 3.2.

**Q.** Which results are given for C=C1CC[C@H](O)C/C1=C/C=C1\CCC[C@]2(C)[C@@H]([C@H](C)CCCC(C)C)CC[C@@H]12 [Vit. D3]?
**A.** Large ACF, ratio controls/treated [13]: 1.8; n° ACF/rat, ratio controls/treated [13]: 1.3; Large ACF ([14]; control 120): 66; ACF/rat ([14]; control 352): 269

**Q.** Which results are given for Inulin?
**A.** Large ACF, ratio controls/treated [15]: 1.4; n° ACF/rat, ratio controls/treated [15]: 1.5; Large ACF ([16]; control 56): 39; ACF/rat ([16]; control 120): 78

**Q.** For Oxothiazolidine, which “Crypts/ACF, ratio controls/treated” value [9] is on record?
**A.** Its value is 1.09.

**Q.** And the “n° ACF/rat, ratio controls/treated” value [9]?
**A.** The value was 1.9.

**Q.** And the Crypt/ACF [10]?
**A.** The Crypt/ACF was 2.38 ± 0.08.

**Q.** What about the ACF/rat [10] of the same compound?
**A.** The ACF/rat was 121 ± 11.
